Laboratory results: patent US9827246B2, “Biomarkers of response to NAE inhibitors” (Millennium Pharmaceuticals, Inc., priority 2011, dated 2017)

Tests used:
Assay type in all cases: cell-based
[1] = tested on: AsPC-1; experiment: Panel 1 cell viability screen; settings: FBXW7 mutant
Method: (§1) To support clinical development and identify potential biomarkers of tumor sensitivity or resistance, two large cancer cell line panels (Panel 1, N=653 (McDermott et al. (2007) PNAS 104:19936-19941); Panel 2, N=240 (O'Day et al. (2010) Fourth AACR International Conference on Molecular Diagnostics in Cancer Therapeutic Development)) were treated with MLN4924 and cell viability data (IC50, EC50, and POC—Percentage of Control) were generated.
(§2) Panel 1 (McDermott et al., supra). The cell lines were exposed to three MLN4924 concentrations (20 nM, 200 nM, and 2 μM) for 72 hours. Viability, i.e., cell number, was quantified by measuring fluorescence of a cell-permeant nucleic acid stain. Mean of triplicate values for each sample were taken and compared to DMSO control to calculate percentage of control. In the results, control or no activity value is given a value of about 1, sensitivity is indicated by a value less than 1, with 0 as death of the entire cell population and resistance indicated by a value greater than 1. A continuum of viability values was obtained for each concentration, so some values were selected as cut-offs for final determination of sensitivity or resistance. For example, median POC values of less than the median value of all POC's recorded in the panel (<0.34) indicated sensitivity, values of 0.34 to 0.75 indicated borderline sensitivity, values greater than the 3rd quartile of all POC's in the panel (>0.75) insensitivity or resistance. […] Final judgment of cell line as sensitive, insensitive or resistant was determined by its viability at 2 μM.

[2] = tested on: BxPC-3; experiment: Panel 1 cell viability screen; settings: SMAD4 mutant
Method: as §1, §2

[3] = tested on: CAPAN-1; experiment: Panel 1 cell viability screen; settings: SMAD4 mutant
Method: as §1, §2

[4] = tested on: CFPAC-1; experiment: Panel 1 cell viability screen; settings: SMAD4 mutant
Method: as §1, §2

[5] = tested on: COCM1; experiment: Panel 1 cell viability screen; settings: CoCM-1; SMAD4 mutant
Method: as §1, §2

[6] = tested on: COLO-678; experiment: Panel 1 cell viability screen; settings: SMAD4 mutant
Method: as §1, §2

[7] = tested on: HT29; experiment: Panel 1 cell viability screen; settings: HT-29; SMAD4 mutant
Method: as §1, §2

[8] = tested on: MDA-MB-231; experiment: Panel 1 cell viability screen; settings: NF2 mutant
Method: as §1, §2

[9] = tested on: MKN1; experiment: Panel 1 cell viability screen; settings: FBXW7 mutant
Method: as §1, §2

[10] = tested on: MKN45; experiment: Panel 1 cell viability screen; settings: SMAD4 mutant
Method: as §1, §2

[11] = tested on: PANC-08-13; experiment: Panel 1 cell viability screen; settings: SMAD4 mutant
Method: as §1, §2

[12] = tested on: RCM-1; experiment: Panel 1 cell viability screen; settings: FBXW7 mutant
Method: as §1, §2

[13] = tested on: S-117; experiment: Panel 1 cell viability screen; settings: NF2 mutant
Method: as §1, §2

[14] = tested on: SW 1463; experiment: Panel 1 cell viability screen; settings: SW1463; FBXW7 mutant
Method: as §1, §2

[15] = tested on: SW620; experiment: Panel 1 cell viability screen; settings: SMAD4 mutant
Method: as §1, §2

[16] = tested on: UMC-11; experiment: Panel 1 cell viability screen; settings: SMAD4 mutant
Method: as §1, §2

[17] = tested on: NCI-H520; experiment: Panel 2 high-content cell screen; settings: Homo sapiens, 72 h, cell number
Method: as §1
(§3) Panel 2 (Ricerca Biosciences, Inc., Bothell, Wash.). MLN4924 was added in half-log dilutions for 10 concentrations and treated for 72 hours. High-content cell screening by fluorescence microscopy included image analysis to generate several types of data. Results included EC50 values (after measurement of cell numbers, the EC50 concentration was calculated from the inflection point of a curve of percent of control (POC) against log of MLN4924 concentration), IC50 values (from the POC-log MLN4924 plot, IC50 is the concentration at 50% maximal possible response), apoptosis (measurement of activation of caspase 3 plotted against log of MLN4924 concentration, determined as the concentration for >5 fold induction), and mitotic activity (determined by measuring the fold increase of phospho-histone 3). A comparison of EC50 to IC50 (FIG. 3) allowed assignment of cell lines to sensitive, insensitive or resistant. Final identification of a cell line as sensitive or resistant was based on the EC50 values. The cutoff for sensitivity is a median EC50 of less than the median value of all POC's recorded in the panel (<0.36), borderline sensitivity was associated with median EC50 of 0.36 to 1.67 and insensitive or resistant cell lines were identified by EC50 greater than the 3rd quartile of all POC's in the panel (>1.67).

[18] = tested on: SK-OV-3; experiment: Panel 2 high-content cell screen; settings: Homo sapiens, 72 h, cell number
Method: as §1, §3

[19] = tested on: SW 1116; experiment: Panel 2 high-content cell screen; settings: Homo sapiens, 72 h, cell number
Method: as §1, §3

[20] = tested on: p21 in TP53−/− HCT-116 cells; experiment: Western blots of p21

Question: Which results are given for NS(=O)(=O)OC[C@@H]1C[C@@H](n2ccc3c(N[C@H]4CCc5ccccc54)ncnc32)C[C@@H]1O [MLN4924, ((1S,2S,4R)-4-{4-[(1S)-2,3-dihydro-1H-inden-1-ylamino]-7H-pyrrolo[2,3-d]pyrimidin-7-yl}-2-hydroxycyclopentyl)methyl sulphamate]?
Answer: Phenotype [1]: resistant; Phenotype [2]: insensitive; Phenotype [3]: sensitive?; Phenotype [4]: sensitive?; Phenotype [5]: resistant; Phenotype [6]: resistant; Phenotype [7]: insensitive; Phenotype [8]: insensitive; Phenotype [9]: insensitive; Phenotype [10]: insensitive; Phenotype [11]: resistant; Phenotype [12]: resistant; Phenotype [13]: resistant; Phenotype [14]: resistant; Phenotype [15]: insensitive; Phenotype [16]: insensitive; EC50 [17]: 0.261 µM; EC50 [18]: ≥ 10 µM; EC50 [19]: ≥ 10 µM; p21 (Western blots) [20]: still up-regulated
